34 compounds from patent US6528655B1, “Aromatic derivatives with HIV integrase inhibitory properties” (Pharmacor, Inc., priority 2000, dated 2003) can be followed below.

For the first assay, the target named is HIV-1 integrase (Human immunodeficiency virus type 1 group M subtype B, UniProt P04585). The assay can be described thus: HIV-1 integrase inhibition assay (radiolabeled duplex substrate corresponding to the U5 end of the HIV LTR). The assay is classed as biochemical.
Details: not given
The method, then: For the purpose of Table 1 to 4, the HIV-1 integrase inhibition assay was carried out following a known procedure (Burke, Jr. T. R. et al., J. Med. Chem. 38, 4171-4178 (1995)). A suitable radiolabeled duplex substrate corresponding to the U5 end of the HIV LTR was used.
For the purposes of Table 1 to 4 the HIV-1 integrase inhibition assay was based on a known procedure (Hazuda, D. J. et al., Nucleic Acids Res. 22 1121-1122 (1994)).
Regarding `O=C(N[C@@H](Cc1c[nH]c2ccccc12)C(=O)NNC(=O)c1ccccc1O)c1cc(O)c2cccc(O)c2n1` [Example 77, N1-[Nα-(4,8-Dihydroxyquinoline-2-carbonyl)-L-tryptophanyl]-N2-(2-hydroxybenzoyl)-hydrazine], it took 4.7 µM to reach half-maximal inhibition (IC50).
As to `O=C(C=Cc1ccc(O)c(O)c1)NC(Cc1cn(-c2ccc([N+](=O)[O-])cc2[N+](=O)[O-])cn1)C(=O)NCCc1ccc(O)c(O)c1` [Example 19, N-[Nα-Caffeoyl-Nτ-(2,4-dinitrophenyl)-L-histidinyl]dopamine], half-maximal inhibition (IC50) was put at 0.56 µM.
Take `COc1ccc(OC)c(C=CC(=O)N[C@@H](COC(C)(C)C)C(=O)NCCc2ccc(O)c(O)c2)c1` [Example 44, N-[Nα-(2,5-Dimethoxycinnamoyl)-O-tert-butyl-L-seryl]dopamine]: the IC50 is more than 10 µM.
On to `CC(C)(C)OC(=O)CC[C@H](NC(=O)c1cccn1Cc1ccc(F)cc1)C(=O)NCCc1cccs1` [Example 101, N-[Nα-(N′-(4-Fluorobenzyl)pyrrole-2-carbonyl)-Oδ-tert-butyl-L-glutamyl]-2-(2′-thiophenyl)ethylamine], for which the half-inhibitory concentration (IC50) was more than 10 µM.
The compound `O=C(NCCCC[C@H](NC(=O)c1c(O)cc(O)cc1O)C(=O)NCCc1ccc(O)c(O)c1)OCc1ccccc1` [Example 37, N-[Nα-(2,4,6-Trihydroxybenzoyl)-Nε-benzyloxycarbonyl-L-lysyl]dopamine] showed an IC50 of 1.6 µM.
Regarding `O=C(C=Cc1ccc(O)c(O)c1)NC(Cc1cn(C(c2ccccc2)(c2ccccc2)c2ccccc2)cn1)C(=O)NCCc1ccc(O)c(O)c1` [Example 13, N-(Nα-Caffeoyl-Nτ-trityl-L-histidinyl)dopamine], the IC50 was determined as 0.369 µM.
Regarding `Cc1ccc(C(NC(=O)CC[C@H](NC(=O)c2ccc(O)c(O)c2)C(=O)NCc2ccc(O)c(O)c2)(c2ccccc2)c2ccccc2)cc1` [Example 32, N-[Nα-(3,4-Dihydroxybenzoyl)-Nδ-methyltrityl-L-glutaminyl]-3,4-dihydroxybenzylamine], the IC50 was found to be 0.256 µM.
Take `Cc1ccc(C(NC(=O)CC[C@H](NC(=O)/C=C/c2ccc(O)c(O)c2)C(=O)Nc2nccs2)(c2ccccc2)c2ccccc2)cc1` [Example 90, N-(Nα-Caffeoyl-Nδ-methyltrityl-L-glutaminyl)thiazole-2-amine]: 0.834 µM corresponded to half-maximal inhibition (IC50).
Compound `COc1ccc(OC)c(C=CC(=O)N[C@@H](CO)C(=O)NCCc2ccc(O)c(O)c2)c1` [Example 46, N-[Nα-(2,5-Dimethoxycinnamoyl)-L-seryl]dopamine] displayed an IC50 of more than 10 µM.
As for `O=C(N[C@@H](CO)C(=O)NCCc1ccc(O)c(O)c1)c1cc(O)c(O)c(O)c1` [Example 45, N-[Nα-(3,4,5-Trihydroxybenzoyl)-L-seryl]dopamine], the IC50 came to 0.446 µM.
`C[C@@H](OCc1ccccc1)[C@H](NC(=O)c1ccc(O)c(O)c1)C(=O)NCCc1ccc(O)c(O)c1` [Example 9, N-[Nα-(3,4-Dihydroxybenzoyl)-O-benzyl-L-threonyl]dopamine]: the IC50 is more than 5 µM.
`O=C(/C=C/c1ccc(O)c(O)c1)N[C@@H](Cc1ccc(O)cc1)C(=O)NNC(=O)c1ccccc1O` [Example 74, N1-(Nα-Caffeoyl-L-tyrosyl)-N2-(2-hydroxybenzoyl)-hydrazine] registered an IC50 of 0.82 µM.
Consider `COc1ccc(NC(=O)[C@H](CCC(=O)NC(c2ccccc2)(c2ccccc2)c2ccccc2)NC(=O)c2ccc(OCc3ccc(F)cc3)c(OCc3ccc(F)cc3)c2)cc1O` [Example 111, N-[Nα-(3,4-di-(4-Fluorobenzyloxy)benzoyl)-Nδ-trityl-L-glutaminyl]-3-hydroxy-4-methoxyaniline], for which half-maximal inhibition (IC50) was put at 6.1 µM.
The same measure, in the same setting: next, `CC(C)(C)OC[C@H](NC(=O)c1cc(O)c(O)c(O)c1)C(=O)NCCc1ccc(O)c(O)c1` [Example 43, N-[Nα-(3,4,5-Trihydroxybenzoyl)-O-tert-butyl-L-seryl]dopamine]: 0.152 µM.
Same read-out and setting: next, `O=C(N[C@@H](Cc1cn(C(c2ccccc2)(c2ccccc2)c2ccccc2)cn1)C(=O)O)c1ccc(O)c(O)c1` [Example 29, Nα-(3,4-Dihydroxybenzoyl)-Nτ-trityl-L-histidine]: 1.6 µM; `O=C(NCCCC[C@H](NC(=O)c1cc2cccc(O)c2cc1O)C(=O)NCCc1ccc(O)c(O)c1)c1cc2cccc(O)c2cc1O` [Example 66, N-[Nα,Nε-di-(3,5-Dihydroxynaphthyl-2-carbonyl)-L-lysyl]dopamine]: more than 5 µM.
Turning to `COc1ccc(NC(=O)[C@H](CCC(=O)NC(c2ccccc2)(c2ccccc2)c2ccccc2)NC(=O)/C=C/c2ccc(OCc3ccc(F)cc3)c(OCc3ccc(F)cc3)c2)cc1O` [Example 112, N-[Nα-(3,4-di-(4-Fluorobenzyloxy)caffeoyl)-Nδ-trityl-L-glutaminyl]-3-hydroxy-4-methoxyaniline], the IC50 came out at 2 µM.
Compound `NC(=O)C[C@H](NC(=O)c1cc(O)c2cccc(O)c2n1)C(=O)NCCc1ccc(O)c(O)c1` [Example 67, N-[Nα-(4,8-Dihydroxyquinoline-2-carbonyl)-L-asparagyl]dopamine] registered a concentration for half-maximal inhibition (IC50) of more than 5 µM.
Turning to `O=C(/C=C/c1cccc([N+](=O)[O-])c1)N[C@@H](Cc1cn(C(c2ccccc2)(c2ccccc2)c2ccccc2)cn1)C(=O)NCCc1ccc(O)c(O)c1` [Example 35, N-(Nα-(3-Nitrocinnamoyl)-Nτ-trityl-L-histidinyl)dopamine], the IC50 amounted to 1.2 µM.
The compound `O=C(C=Cc1ccc([N+](=O)[O-])cc1)NC(Cc1cn(C(c2ccccc2)(c2ccccc2)c2ccccc2)cn1)C(=O)NCCc1ccc(O)c(O)c1` [Example 41, N-(Nα-(4-Nitrocinnamoyl)-Nτ-trityl-L-histidinyl)dopamine] showed an IC50 of 1.14 µM.
On to `O=C(N[C@H](Cc1cn(C(c2ccccc2)(c2ccccc2)c2ccccc2)cn1)C(=O)NCCc1ccc(O)c(O)c1)c1ccc(O)c([N+](=O)[O-])c1` [Example 18, N-[Nα-(4-Hydroxy-3-nitrobenzoyl)-Nτ-trityl-D-histidinyl]dopamine], for which it took 0.562 µM to reach half-maximal inhibition (IC50).
`O=C(C[C@H](NC(=O)c1cc(O)c2cccc(O)c2n1)C(=O)NCCc1ccc(O)c(O)c1)NC(c1ccccc1)(c1ccccc1)c1ccccc1` [Example 64, N-[Nα-(4,8-Dihydroxyquinoline-2-carbonyl)-Nγ-trityl-L-asparagyl]dopamine] yielded an IC50 of 7.1 µM.
As for `CC(C)(C)OC(=O)N[C@@H](Cc1cn(-c2ccc([N+](=O)[O-])cc2[N+](=O)[O-])cn1)C(=O)NCc1ccc(O)c(O)c1` [Example 24, N-[Nα-tert-Butoxycarbonyl-Nτ-(2,4-dinitrophenyl)-L-histidinyl]-3,4-dihydroxybenzylamine], the IC50 is more than 5 µM.
In turn, `CC(C)(C)OC[C@H](NC(=O)c1ccc(OCc2ccc(F)cc2)c(OCc2ccc(F)cc2)c1)C(=O)NCCc1ccc(O)c(O)c1` [Example 97, N-[Nα-(3,4-di-(4-Fluorobenzyloxy)benzoyl)-O-tert-butyl-L-seryl]dopamine] showed an IC50 of 2.9 µM.
Regarding `CC(C)(C)OC(=O)N[C@@H](Cc1cn(-c2ccc([N+](=O)[O-])cc2[N+](=O)[O-])cn1)C(=O)NNC(=O)c1ccccc1O` [Example 79, N1-[Nα-tert-Butoxycarbonyl-Nτ-(2,4-dinitrophenyl)-L-histidinyl]-N2-(2-hydroxybenzoyl)-hydrazine], the IC50 is more than 4 µM.
On the same count and under the same terms, the value for `O=C(N[C@@H](Cc1ccc(O)c(O)c1)C(=O)NCCc1ccc(O)c(O)c1)c1cc2cccc(O)c2cc1O` [Example 60, N-[Nα-(3,5-Dihydroxynaphthyl-2-carbonyl)-L-3,4-dihydroxyphenylalanyl]dopamine] was 1.8 µM; that for `O=C(C[C@H](NC(=O)c1ccc(O)c(O)c1)C(=O)NCCc1ccc(O)c(O)c1)OC1CCCCC1` [Example 1, N-[Nα-(3,4-Dihydroxybenzoyl)-Oγ-cyclohexyl-L-aspartyl]dopamine] was 34 µM.

Still in this assay, the particulars now being: Table 1, compounds of formula II′; read-out: IC50.
With `Cc1ccc(C(c2ccccc2)(c2ccccc2)n2cnc(C[C@H](NC(=O)c3ccc(O)c([N+](=O)[O-])c3)C(=O)NCCc3ccc(O)c(O)c3)c2)cc1` [Example 36, N-[Nα-(4-Hydroxy-3-nitrobenzoyl)-Nτ-methyltrityl-L-histidinyl]dopamine], the IC50 was 0.575 µM.

The assay is the same for the next values; noted with them: Table 2, compounds of formula III′; read-out: IC50.
Turning to `Cc1ccc(C(c2ccccc2)(c2ccccc2)n2cnc(C[C@H](NC(=O)c3cc(O)c4cccc(O)c4n3)C(=O)NCCc3ccc(O)c(O)c3)c2)cc1` [Example 71, N-[Nα-(4,8-Dihydroxyquinoline-2-carbonyl)-Nτ-methyltrityl-L-histidinyl]dopamine], the IC50 stood at 0.607 µM.
For the compound `O=C(NCCCC[C@H](NC(=O)c1cc2cccc(O)c2cc1O)C(=O)OCc1ccccc1)c1cc2cccc(O)c2cc1O` [Example 55, Nα,Nε-di-(3,5-Dihydroxynaphthyl-2-carbonyl)-L-L-lye Benzyl Ester], the IC50 was more than 5 µM.

The assay is the same for the next values; noted with them: Table 3, compounds of formula IV′; read-out: IC50.
`O=C(CC[C@H](NC(=O)c1cc(O)c2cccc(O)c2n1)C(=O)NNC(=O)c1ccccc1O)NNC(=O)c1ccccc1O` [Example 78, N1-[Nα-(4,8-Dihydroxyquinoline-2-carbonyl)-L-glutamyl]-N2/Nδ-di-(2-hydroxybenzoyl)-dihydrazine]: the IC50 was more than 9.7 µM.

The same assay, now with this note: Table 4, compounds of formula I′; read-out: IC50.
“N-[Nα-(N′-(4-Fluorobenzyl)indole-2-carbonyl)-Oδ-tert-butyl-L-glutamyl]benzylamine [Example 89]”: the IC50 is more than 10 µM.
`COc1ccc(NC(=O)[C@H](CCC(=O)NC(c2ccccc2)(c2ccccc2)c2ccccc2)NC(=O)c2cc3ccccc3n2Cc2ccc(F)cc2)cc1O` [Example 109, N-[Nα-(N′-(4-Fluorobenzyl)indole-2-carbonyl)-Nδ-trityl-L-glutaminyl]-3-hydroxy-4-methoxyaniline]: the IC50 amounted to 5.3 µM.
With `O=C(C=Cc1ccc(OCc2ccc(F)cc2)c(OCc2ccc(F)cc2)c1)NCC(=O)NCCc1ccc(O)c(O)c1` [Example 100, N-[Nα-(3,4-di-(4-Fluorobenzyloxy)caffeoyl)-L-glycyl)dopamine], the IC50 was found to be 2.6 µM.
